# Assay results: patent US20140315886A1, “QUINAZOLINES AS THERAPEUTIC COMPOUNDS AND RELATED METHODS OF USE” (OTSUKA PHARMACEUTICAL CO., LTD., priority 2011, published 2014)
# Target: T1, purified STEP46 enzyme (Homo sapiens, UniProt P54829)
# T1 sequence (P54829 197-565 limits assumed): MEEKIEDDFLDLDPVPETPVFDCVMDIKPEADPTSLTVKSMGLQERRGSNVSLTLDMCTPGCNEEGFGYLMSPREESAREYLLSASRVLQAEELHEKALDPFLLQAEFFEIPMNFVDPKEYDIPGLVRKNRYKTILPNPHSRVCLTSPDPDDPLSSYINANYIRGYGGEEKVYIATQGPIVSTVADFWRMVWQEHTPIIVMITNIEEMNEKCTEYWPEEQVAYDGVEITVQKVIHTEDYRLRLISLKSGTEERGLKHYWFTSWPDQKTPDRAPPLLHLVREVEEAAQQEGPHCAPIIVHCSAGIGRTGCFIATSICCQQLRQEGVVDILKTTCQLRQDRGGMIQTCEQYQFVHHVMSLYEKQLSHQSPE
# Assay: STEP46 biochemical assay (DiFMUP fluorescence phosphatase assay)
# Details: DiFMUP 10 μM, read-out: STEP IC50
# Protocol: Serial dilutions of compounds were performed in 100% DMSO and 1 uL of compounds were dispensed into 384-well black polystyrene plates (Corning, N.Y.). Compounds were incubated with 24 uL of buffer containing 50 mM Hepes, 1 mM DTT, 0.02% Brij35, 1 ng/well purified STEP46 enzyme for […] at room temperature. The reaction was initiated by addition of 25 uL of DiFMUP (6,8-difluoro-4-methylumbelliferyl phosphate) (InVitrogen, CA) with a final concentration of 10 μM and incubated at 27° C. for 90 mM Final DMSO concentration is 2%. Plates were read with florescence intensity at excitation/emission of 360/460 nm using a PheraStar plate reader (BMG Labtech, NC).
# Data were expressed as percentage (%) inhibition of enzyme activity. 0% inhibition is defined as the RFUs (relative fluorescence units) in the absence of compounds and 100% inhibition is defined as RFUs in the absence of STEP46 enzyme. IC50 values of compounds with inhibitory activity against STEP46 were determined by GraphPad Prism (version 4.03) using four parameter logistic equation. Some compounds act as activators. For compounds showing STEP46 enzymatic activation, data are represented as percentage of inhibition but with negative values at three representative concentrations (25, 50 and 100 uM).
row,IC50 [µM],Compound
1,< 1,COc1ccc2nc(-c3cccnc3)nc(Nc3ccnc(F)c3)c2c1 [Compound 43]
2,> 10,CNc1nc(-c2cccnc2)nc2ccc(-c3cccc(S(N)(=O)=O)c3)cc12 [Compound 235]
3,1 to 10,CNc1nc(-c2cccnc2)nc2c(F)cc(-c3c(F)cccc3F)cc12 [Compound 575]
4,1 to 10,c1ccc(CNc2nc(-c3cccnc3)nc3ccc(-c4ccoc4)cc23)nc1 [Compound 602]
5,1 to 10,CCOc1ccc2nc(-c3ccnnc3)nc(Nc3ccccc3C(N)=O)c2c1 [Compound 71]
6,> 10,CNc1nc(-c2cccnc2)nc2cc(C)c(-c3ccc(F)c(OC)c3)cc12 [Compound 304]
7,1 to 10,Fc1ccc(-c2ccc3c(N4CCc5cc(Cl)ccc54)nc(-c4cccnc4)nc3c2)cc1 [Compound 97]
8,1 to 10,CNc1nc(-c2cccnc2)nc2c(-c3ccc(F)cc3F)ccc(OC)c12 [Compound 490]
9,1 to 10,CNC(=O)C1CN(c2nc(-c3cccnc3)nc3ccc(-c4ccc(F)cc4F)cc23)C1 [Compound 423]
10,1 to 10,c1ccc(CNc2nc(-c3cccnc3)nc3cc(-c4cc5ccccc5o4)ccc23)nc1 [Compound 347]
11,1 to 10,CC(Nc1nc(-c2cccnc2)nc2ccc(-c3ccc(F)cc3)cc12)c1ccccc1 (stereo not shown) [Compound 605]
12,1 to 10,CNc1nc(-c2cccnc2OC)nc2cc(-c3cc(F)ccc3F)ccc12 [Compound 158]
13,1 to 10,CNc1nc(-c2cccnc2)nc2c(F)c(-c3ccc4[nH]ncc4c3)ccc12 [Compound 535]
14,> 10,Fc1ccc(-c2ccc3nc(-c4cccnc4)nc(N4CC(F)(F)C4)c3c2)c(F)c1 [Compound 415]
15,< 1,CNc1nc(-c2cccnc2)nc2ccc(-c3cccc(-c4ncco4)c3)cc12 [Compound 250]
16,< 1,CNc1nc(-c2cccnc2)nc2ccc(-c3cccc4oc(=O)[nH]c34)cc12 [Compound 476]
17,> 10,CNc1nc(-c2cccnc2)nc2ccc(-c3cccc(S(C)(=O)=O)c3)cc12 [Compound 245]
18,1 to 10,CNc1nc(-c2cccnc2)nc2cc(-c3ccsc3)ccc12 [Compound 320]
19,1 to 10,CNc1nc(-c2cccnc2)nc2cc(-c3cccc(F)c3)c(F)cc12 [Compound 550]
20,1 to 10,CNc1nc(-c2cccnc2)nc2c(-c3cc(F)cc(F)c3)ccc(OC)c12 [Compound 491]
21,1 to 10,CNc1nc(-c2cccnc2)nc2c(OC)cc(-c3ccccc3C#N)cc12 [Compound 205]
22,1 to 10,CC(Nc1nc(-c2cccnc2)nc2ccc(-c3ccccc3F)cc12)c1ccccc1 (stereo not shown) [Compound 603]
23,1 to 10,CNc1nc(-c2cnccn2)nc2cc(-c3ccc(F)c(F)c3)ccc12 [Compound 397]
24,1 to 10,CNc1nc(-c2cccnc2)nc2ccc(-c3cc(Cl)ccc3F)cc12 [Compound 240]
25,1 to 10,CNc1nc(-c2cccnc2)nc2ccc(-c3ccc(C)cc3F)cc12 [Compound 239]

row,IC50 [µM],Compound
1,1 to 10,Fc1ccc(Nc2nc(-c3cccnc3)nc3cc(Cl)ccc23)nc1 [Compound 52]
2,< 1,CNc1nc(-c2cccnc2)nc2c(-c3cccc(C#N)c3)cccc12 [Compound 272]
3,1 to 10,CNc1nc(-c2cccnc2)nc2c(Cl)cc(-c3cccc(F)c3F)cc12 [Compound 243]
4,> 10,CNc1nc(-c2ccnnc2)nc2ccc(-c3cccc(F)c3)cc12 [Compound 212]
5,< 1,CNc1nc(-c2cccnc2)nc2ccc(-c3cc4[nH]c(=O)oc4cc3F)cc12 [Compound 477]
6,< 1,CNc1nc(-c2cccnc2)nc2c(F)c(-c3cc(F)cc(F)c3F)ccc12 [Compound 523]
7,1 to 10,CNc1nc(-c2cccnc2)nc2cc(-c3cc(F)ccc3OC)ccc12 [Compound 316]
8,< 1,O=[N+]([O-])c1ccc2c(c1)CCN2c1nc(-c2cccnc2)nc2cc(-c3ccc(F)cc3F)ccc12 [Compound 104]
9,> 10,Fc1ccc(-c2ccc3nc(-c4cccnc4)nc(NCCc4ccccn4)c3c2)cc1 [Compound 337]
10,1 to 10,CNc1nc(-c2cccnc2)nc2ccc(-c3nnc(-c4ccccc4)s3)cc12 [Compound 466]
11,1 to 10,CNc1nc(-c2cncnc2)nc2ccc(-c3cccc(F)c3)cc12 [Compound 210]
12,1 to 10,Fc1cc(F)cc(-c2ccc3nc(-c4ccnnc4)nc(NCc4ccccn4)c3c2)c1 [Compound 328]
13,> 10,CNc1nc(-c2cccnc2)nc2c(C)c(-c3cc(F)c(F)cc3F)ccc12 [Compound 287]
14,1 to 10,CNc1nc(-c2cnccn2)nc2ccc(-c3ccc(F)c(F)c3)c(F)c12 [Compound 977]
15,1 to 10,COc1ccc2c(Nc3ccc(C)cn3)nc(-c3cccnc3)nc2c1 [Compound 55]
16,1 to 10,CNc1nc(-c2cccnc2)nc2cc(-c3ccccc3F)c(F)cc12 [Compound 552]
17,> 10,CNc1nc(-c2cccnc2)nc2cc(C(F)(F)F)c(-c3ccc(F)cc3F)cc12 [Compound 198]
18,1 to 10,CNc1nc(-c2cccnc2)nc2c(C)c(-c3cc(F)cc(F)c3F)ccc12 [Compound 288]
19,1 to 10,CNc1nc(-c2cccnc2)nc2cc(F)c(-c3ccc(C#N)cc3)cc12 [Compound 592]
20,1 to 10,CNc1nc(-c2cccnc2)nc2c(OC)cc(-c3ccc(F)c(F)c3)cc12 [Compound 255]
21,< 1,"CNc1nc(-c2cccnc2)nc2ccc(-c3ccc4sc(C)nc4c3)cc12 [Compound 169, N-methyl-6-(2-methylbenzo[d]thiazol-5-yl)-2-(pyridin-3-yl)quinazolin-4-amine, 2HCl]"
22,< 1,CCCOc1ccc2nc(-c3cccnc3)nc(N3CCc4cc(Cl)ccc43)c2c1 [Compound 137]
23,1 to 10,CNc1nc(-c2cccnc2)nc2ccc(-c3cccc4c3CNC4=O)cc12 [Compound 450]
24,1 to 10,CNc1nc(-c2cccnc2)nc2cc(F)c(-c3cccc(F)c3)cc12 [Compound 584]
25,> 10,"COc1ccc2nc(-c3cccnc3)nc(Nc3cc(Cl)ccn3)c2c1 [Compound 45, N-(4-chloropyridin-2-yl)-6-methoxy-2-(pyridin-3-yl)quinazolin-4-amine]"

row,IC50 [µM],Compound
1,1 to 10,Cc1ccc2c(c1)N(c1nc(-c3cccnc3)nc3ccc(-c4cccc(F)c4F)cc13)CC2 [Compound 446]
2,1 to 10,CNc1nc(-c2cccnc2)nc2ccc(-c3ccnc(C#N)c3)cc12 [Compound 167]
3,> 10,CNc1nc(-c2cccnc2)nc2ccc(-c3cccc(CC(N)=O)c3)cc12 [Compound 166]
4,1 to 10,CNc1nc(-c2cccnc2)nc2ccc(-c3c(F)cccc3F)cc12 [Compound 458]
5,> 10,CNc1nc(-c2cccnc2)nc2cc(-c3ccoc3C)ccc12 [Compound 275]
6,1 to 10,CNc1nc(-c2cccnc2)nc2c(-c3cc(F)cc(OC)c3)ccc(OC)c12 [Compound 498]
7,> 10,Fc1ccc(-c2ccc3nc(-c4cccnc4)nc(N4CC(n5cccn5)C4)c3c2)c(F)c1 [Compound 420]
8,1 to 10,CNc1nc(-c2cnccn2)nc2cc(-c3cccc(F)c3)ccc12 [Compound 392]
9,> 10,CNc1nc(-c2cccnc2)nc2ccc(-c3cccc(OC(C)C)c3)cc12 [Compound 257]
10,1 to 10,COc1ccc2nc(-c3cccnc3)nc(Nc3cc(F)ccn3)c2c1 [Compound 31]
11,1 to 10,CNc1nc(-c2cccnc2)nc2cc(-c3c(F)cc(F)cc3F)ccc12 [Compound 454]
12,< 1,CNc1nc(-c2cccnc2)nc2c(F)cc(-c3ccccc3C#N)cc12 [Compound 567]
13,1 to 10,COc1ccc2nc(-c3cccnc3)nc(Nc3ccc(C#N)cn3)c2c1 [Compound 46]
14,1 to 10,CNc1nc(-c2cccnc2)nc2c(F)c(-c3cccc(F)c3)ccc12 [Compound 510]
15,1 to 10,CNc1nc(-c2cccnc2)nc2cc(OC)c(-c3cccc(F)c3F)cc12 [Compound 230]
16,1 to 10,CNC(=O)c1cc(-c2ccc3nc(-c4cccnc4)nc(NC)c3c2)ccc1F [Compound 180]
17,1 to 10,CNc1nc(-c2cccnc2)nc2c(Cl)cc(-c3ccc(F)cc3F)cc12 [Compound 244]
18,1 to 10,COc1ccc2nc(-c3cccnc3)nc(Nc3cncc(F)c3)c2c1 [Compound 25]
19,1 to 10,CNc1nc(-c2cccnc2)nc2cc(-c3ccc(F)cc3OC)ccc12 [Compound 322]
20,1 to 10,CC(Nc1nc(-c2cccnc2)nc2cc(-c3ccc(F)c(F)c3)ccc12)c1ccccn1 (stereo not shown) [Compound 369]
21,< 1,CC(Nc1nc(-c2cccnc2)nc2cc(-c3ccccc3F)ccc12)c1ccccn1 (stereo not shown) [Compound 371]
22,1 to 10,CNc1nc(-c2cccnc2)nc2c(F)cc(-c3cccc(OC)c3)cc12 [Compound 574]
23,1 to 10,CNc1nc(-c2cccnc2)nc2c(OC)cc(-c3cccc(Cl)c3)cc12 [Compound 305]
